Test results from US20120022122A1, “TREATMENT AND PREVENTION OF DELETERIOUS EFFECTS ASSOCIATED WITH ALCOHOL CONSUMPTION” (priority 2008, published 2012).
Like-named read-outs stand apart in the source and are kept apart here.

Legend:
[1] = system: alcohol-induced flush reaction; settings: for undesired side-effects (drowsiness, sedation): famotidine 10 mg oral chewable tablet, with alcohol; for effects/effectiveness compared to no treatment or comparator: cimetidine 300 mg vs famotidine 10 mg vs no treatment; for effectiveness as preventative treatment against symptoms of alcohol-induced flush reaction (summary of the studies): famotidine at low dose, cimetidine at a higher dose;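 on all read-outs here: human subjects with alcohol-induced flushing observed over social drinking occasions, with each subject also tested untreated as the control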
[2] = system: alcohol flush reaction and hangover; settings: previous studies with famotidine alone
[3] = cited from earlier work
[4] = Patient one, oral 45 min before drinking: cimetidine 300 mg (2 beverages, about 2 h) or famotidine 10 mg (2 oz tequila and 5 glasses beer, more than 6 h)
[5] = Patient three, oral 45 min before drinking: cimetidine 300 mg (2 beverages, about 3 h) or famotidine 10 mg (cocktails, about 4 h)
[6] = Subject 1, with alcohol, oral 45 min before drinking: loratidine 20 mg or famotidine 10 mg
[7] = Subject 2, with alcohol, oral 45 min before drinking: cimetidine 300 mg or famotidine 10 mg
[8] = Subject 3, with alcohol, oral 45 min before drinking: loratidine 20 mg or famotidine 10 mg
[9] = Subject 4, with alcohol, oral 45 min before drinking: cimetidine 300 mg or famotidine 10 mg
[10] = Subject 5, with alcohol, oral 45 min before drinking: loratidine 20 mg or famotidine 10 mg

**Q.** For `NC(N)=Nc1nc(CSCCC(N)=NS(N)(=O)=O)cs1` [Famotidine], which “redness while imbibing in alcohol” value ([1]; 10 mg of famotidine) is on record?
**A.** The value was “significantly prevents redness”.

**Q.** And the “undesired side-effects (drowsiness, sedation)” value (shortened to “undesired side-effects”) ([1]; Patient five)?
**A.** The value was “no undesired side-effects whatsoever”.

**Q.** And the “period after which the protective effect (flushing blockade) dissipated” value ([1]; Patient five, famotidine 10 mg oral, continued drinking beyond six drinks and more than six hours)?
**A.** The value was “about five”.

**Q.** What about the “flushing reaction after drinking alcohol” value ([1]; Patient five, oral 45 min before drinking: loratadine 20 mg (1 beverage, 1 h) or famotidine 10 mg (5 beverages, about 5 h)) of the same compound?
**A.** Its value is “neither a facial flushing reaction nor any nasal congestion”.

**Q.** What about the “undesired side-effects” value ([1]; Patient four) of the same compound?
**A.** Its value is “no undesired side-effects whatsoever”.

**Q.** What about the “flushing reaction after drinking alcohol” value ([1]; Patient four, oral 45 min before drinking: loratadine 20 mg (3 beverages, 3-4 h) or famotidine 10 mg (multiple glasses of wine, 4 h)) of the same compound?
**A.** Its value is “no flushing reactions of the face or of the torso”.

**Q.** What about the “effects/effectiveness compared to no treatment or comparator” value ([1]; Patient one) of the same compound?
**A.** Its value is “much more effective than cimetidine”.

**Q.** What about the “undesired side-effects” value ([1]; Patient one) of the same compound?
**A.** Its value is “no undesired side-effects whatsoever”.

**Q.** And the “flushing reaction after drinking alcohol” value [1, 4]?
**A.** Its value is “no facial flushing reaction”.

**Q.** What about the “effects/effectiveness compared to no treatment or comparator” value ([1]; Patient three) of the same compound?
**A.** Its value is “much more effective than cimetidine or no treatment”.

**Q.** And the “undesired side-effects” value ([1]; Patient three)?
**A.** Its value is “no undesired side-effects whatsoever”.

**Q.** And the “flushing reaction after drinking alcohol” value [1, 5]?
**A.** The value was “no flushing reactions of the face”.

**Q.** And the “undesired side-effects” value ([1]; Patient two)?
**A.** The value was “no undesired side-effects whatsoever”.

**Q.** What about the “flushing reaction after drinking alcohol” value ([1]; Patient two, oral 45 min before drinking: loratadine 20 mg (3 beverages, 3-4 h) or famotidine 10 mg (2-3 glasses Vodka, several hours)) of the same compound?
**A.** Its value is “no flushing reactions, either of the face or of the torso”.

**Q.** What about the Heart rate [1, 6] of the same compound?
**A.** The Heart rate was 77.

**Q.** And the “Temp (F.)” value [1, 6]?
**A.** The value was 97.3 F.

**Q.** What about the Heart rate [1, 7] of the same compound?
**A.** Its Heart rate is 82.

**Q.** And the “Temp (F.)” value [1, 7]?
**A.** Its value is 98.2 F.

**Q.** And the Heart rate [1, 8]?
**A.** The Heart rate was 84.

**Q.** What about the “Temp (F.)” value [1, 8] of the same compound?
**A.** Its value is 97.4 F.

**Q.** What about the Heart rate [1, 9] of the same compound?
**A.** The Heart rate was 78.

**Q.** What about the “Temp (F.)” value [1, 9] of the same compound?
**A.** Its value is 97.1 F.

**Q.** And the Heart rate [1, 10]?
**A.** Its Heart rate is 83.

**Q.** And the “Temp (F.)” value [1, 10]?
**A.** Its value is 97.3 F.

**Q.** What about the “effectiveness as preventative treatment against symptoms of alcohol-induced flush reaction (summary of the studies)” value [1] of the same compound?
**A.** The value was “highly effective”.

**Q.** What about the “symptoms associated with hangover” value [2] of the same compound?
**A.** Its value is “did not appear to significantly reduce or eliminate symptoms associated with hangover”.

**Q.** And the solubility ([3]; in ethanol)?
**A.** The solubility was “practically insoluble”.

**Q.** And the solubility ([3]; in glacial acetic acid)?
**A.** The solubility was “freely soluble”.

**Q.** What about the solubility ([3]; in methanol) of the same compound?
**A.** Its solubility is “slightly soluble”.

**Q.** And the solubility ([3]; in water)?
**A.** Its solubility is “very slightly soluble”.

**Q.** Which results are given for `CN/C(=N/CCSCc1nc[nH]c1C)NC#N` [Cimetidine]?
**A.** effects/effectiveness compared to no treatment or comparator ([1]; Patient one): slightly less aggressive; flushing reaction after drinking alcohol [1, 4]: still experienced a facial flushing reaction, increased heart rate, as well as a headache; effects/effectiveness compared to no treatment or comparator ([1]; Patient three): slightly less aggressive; flushing reaction after drinking alcohol [1, 5]: still experienced a facial flushing reaction and an increased heart rate; Heart rate [1, 7]: 97; Temp (F.) [1, 7]: 98.0 F.; Heart rate [1, 9]: 87; Temp (F.) [1, 9]: 97.1 F.; effectiveness as preventative treatment against symptoms of alcohol-induced flush reaction (summary of the studies) [1]: minimally effective
